# Source: the supplement of paper PMC10307832
# Key:
# Test in all cases: relative viability (nuclei count vs DMSO), 5 days (fraction); higher = more cells survive
# [1] = compound: Cc1ccccc1C(C(=O)NC1CCCCC1)N(C(=O)Cn1ccnc1C)c1cccc(F)c1 [IDH-C35] + CCNC(=O)c1noc(-c2cc(C(C)C)c(O)cc2O)c1-c1ccc(CN2CCOCC2)cc1 [Luminespib] (partner 0.01 µM)
# Outline: (§1)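 Nuclei were stained with Hoechst during a one-step fixation (final 0.05% Triton X-100, 1% formaldehyde, 1 ug/ml Hoechst) carried out 5 days after dosing, then counted on 4× images. The cells, lung cancer lines in 1536-well plates, had been dosed by pin tool the day after seeding with one drug alone or a fixed anchor-drug dose plus five library-drug doses (not always all listed) in √10 steps. Relative viability is the nuclei count in treated wells divided by that in vehicle wells, and each value is the median of duplicate plates.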
# [2] = compound: Cc1ccccc1C(C(=O)NC1CCCCC1)N(C(=O)Cn1ccnc1C)c1cccc(F)c1 [IDH-C35] + N=C(N)NC(=N)NCCc1ccccc1 [Phenformin] (partner 250 µM)
# Outline: as §1
# [3] = compound: Cc1ccccc1C(C(=O)NC1CCCCC1)N(C(=O)Cn1ccnc1C)c1cccc(F)c1 [IDH-C35] + CC(=O)c1c(C)c2cnc(Nc3ccc(N4CCNCC4)cn3)nc2n(C2CCCC2)c1=O [Palbociclib] (partner 0.5 µM)
# Outline: as §1
# [4] = compound: CC1=C(C(=NN1)C)CC2=C(C3=C(S2)N(C(=O)N(C3=O)C)CC(C)C)C(=O)N4C[C@@H](CO4)O + CS(=O)(=O)CCNCc1ccc(-c2ccc3ncnc(Nc4ccc(OCc5cccc(F)c5)c(Cl)c4)c3c2)o1 [Lapatinib] (partner 2 µM)
# Outline: as §1
Cell Line,relative viability ([1]; first compound 0.08 µM),relative viability ([1]; first compound 0.253 µM),relative viability ([1]; first compound 0.8 µM),relative viability ([1]; first compound 2.53 µM),relative viability ([1]; first compound 8 µM),relative viability ([2]; first compound 0.08 µM),relative viability ([2]; first compound 0.253 µM),relative viability ([2]; first compound 0.8 µM),relative viability ([2]; first compound 2.53 µM),relative viability ([2]; first compound 8 µM),relative viability ([3]; first compound 0.08 µM),relative viability ([3]; first compound 0.253 µM),relative viability ([3]; first compound 0.8 µM),relative viability ([3]; first compound 2.53 µM),relative viability ([3]; first compound 8 µM),relative viability ([4]; first compound 0.0025 µM),relative viability ([4]; first compound 0.007906 µM),relative viability ([4]; first compound 0.025 µM),relative viability ([4]; first compound 0.07906 µM),relative viability ([4]; first compound 0.25 µM)
NCI-H2342,0.818,0.617,0.803,0.631,0.7,0.572,0.566,0.579,0.651,0.527,0.578,0.535,0.475,0.526,0.662,–,–,–,–,–
SK-MES-1,0.701,0.939,0.855,0.861,0.749,0.696,0.649,0.6,0.673,0.648,0.307,0.286,0.301,0.317,0.271,0.474,0.462,0.445,0.434,0.454
HCC-366,–,–,–,–,–,0.658,0.629,0.621,–,0.578,0.374,0.399,0.381,0.38,0.321,1.02,1.03,1.06,1.07,1.15
201T,1.05,1.07,1.02,1.04,1.01,0.469,0.431,0.436,0.466,0.438,0.361,0.375,0.346,0.351,0.343,1.05,1,1.03,0.986,1.06
HCC-827,0.788,0.526,0.472,0.569,0.516,0.425,0.348,0.384,0.397,0.406,0.475,0.483,0.397,0.562,0.472,0.189,0.171,0.192,0.156,0.167
NCI-H647,0.146,0.256,0.357,0.241,0.126,0.425,0.446,0.626,0.55,0.491,0.47,0.433,0.399,0.347,0.397,1.28,1.35,1.04,1.15,1.19
NCI-H441,0.26,0.306,0.293,0.293,0.399,1.07,0.866,0.72,1.01,0.807,0.183,0.238,0.254,0.242,0.224,–,–,–,–,–
NCI-H1703,–,–,–,–,–,–,–,–,–,–,–,–,–,–,–,1.14,1.37,1.02,1.14,1.08
Calu-6,–,–,–,–,–,–,–,–,–,–,–,–,–,–,–,1.13,1.06,0.947,1.04,1.19
HCC-78,–,–,–,–,–,0.608,0.682,0.644,0.798,0.745,0.462,0.437,0.439,0.494,0.553,0.92,0.691,0.738,0.577,0.733
NCI-H1299,–,–,–,–,–,–,–,–,–,–,–,–,–,–,–,0.953,0.992,0.93,0.935,0.986
LCLC-103H,0.93,0.999,0.95,0.959,0.859,0.308,0.338,0.344,0.364,0.34,0.498,0.483,0.532,0.518,0.484,–,–,–,–,–
ChaGo-K-1,0.733,0.625,0.623,0.697,0.67,0.482,0.473,0.511,0.465,0.531,0.921,0.907,0.92,0.898,0.983,–,–,–,–,–
NCI-H1648,–,–,–,–,–,–,–,–,–,–,–,0.271,0.322,0.246,0.285,–,–,–,–,–
NCI-H596,1.04,0.974,1.22,–,0.97,0.781,0.819,0.705,–,0.786,–,–,–,–,–,1.12,1.19,1.14,0.982,1.09
NCI-H1563,0.538,0.563,0.558,0.508,0.536,0.703,0.625,0.696,0.623,0.649,–,–,–,–,–,0.944,1.01,0.999,1.04,0.831
A549,–,–,–,–,–,0.188,0.189,0.151,–,0.19,–,–,–,–,–,1.08,1.07,1.04,0.976,1.08
NCI-H522,0.958,1,1.1,1.22,1,0.643,0.65,0.764,0.629,0.659,1.07,1.07,1.01,0.944,0.99,–,–,–,–,–
NCI-H1623,0.435,0.503,0.502,0.559,0.439,0.604,0.638,0.573,0.613,0.557,–,–,–,–,–,–,–,–,–,–
SW 900,0.175,0.178,0.181,0.179,0.162,0.669,0.591,0.56,0.615,0.438,0.487,0.568,–,0.522,0.506,–,–,–,–,–
IA-LM,–,–,–,–,–,–,–,–,–,–,–,–,–,–,–,1.04,0.863,0.924,0.816,1.05
EBC-1,–,–,–,–,–,–,–,–,–,–,–,–,–,–,–,0.201,0.204,0.217,0.203,0.204
